“Also recorded” adds a separate entry of the source.

Series [1] has as its system mouse hepatitis virus (MHV). The note with it: appearance of E2 on the cell surface is delayed; cited from earlier work.
In series [2] the test system is hepatitis B virus (HBV). The series can be described thus: HBV secretion under tunicamycin. Type of series: cell-based. The note with it: found by the present inventors.
For series [3], the system named is N-linked glycosylation of proteins. The note with it: cited from earlier work.
Series [4] deals with hepatitis B virus (HBV). The conditions noted are these: previously reported; cited from earlier work.
For series [5], the system named is cells. The conditions noted are these: cited from earlier work.
The subject of series [6] is HBV infection. The note with it: patients; cited from earlier work.
Series [7] deals with α-glucosidase I. The note with it: N-linked oligosaccharide processing enzyme; cited from earlier work.
For series [8], the system named is α-glucosidase II. The note with it: N-linked oligosaccharide processing enzyme; cited from earlier work.
For series [9] the following is noted: treatment of chronic hepatitis B; clinical tests suspended; cited from earlier work.

Consider `CN1C[C@H](O)[C@@H](O)[C@H](O)[C@H]1CO` [N-methyl deoxynojirimycin], for which the “formation of mouse hepatitis virus (in words)” value in series [1] is listed as “inhibit the formation of mouse hepatitis virus (MHV)”.
In the case of tunicamycin, the “secretion of subviral particles (in words)” value in series [2] (subviral particles) is listed as “not subviral particles is inhibited”. Also, the “secretion of HBV virions (in words)” value in [2] (virions) was “inhibited”. In addition, the “N-linked glycosylation of proteins (in words)” value in [3] is given as “complete inhibition”. For the same compound, the “HBV secretion from HBV infected or HBV-producing cells (in words)” value in series [4] is “no significant reduction of HBV secretion; also recorded: normal HBV particle secretion”. In series [5], the “toxicity to cells (in words)” value is reported as “very toxic to cells”.
On to Alpha interferon, for which the “treatment of HBV infection (in words)” value in series [6] is reported as “promising results in some patients”.
For the compound `OC[C@H]1NC[C@H](O)[C@@H](O)[C@@H]1O` [DNJ, 1,5-Dideoxy-1,5-imino-D-glucitol, reference compound], the “inhibition of α-glucosidase I (in words)” value in series [7] is “known inhibitors”. Further, in series [8], the “inhibition of α-glucosidase II (in words)” value was “known inhibitors”.
As for `O=c1[nH]c(=O)n([C@@H]2O[C@H](CO)[C@@H](O)[C@@H]2F)cc1I` [fialuridine], the “drug-related liver failure in patients” value in [9] is on record as “six of 20 patients”.

(Values after patent publication US6037351A, “Method of inhibiting hepatitis B virus” (priority 1996, dated 2000).)
